Patent publication EP3336173A1, “A STRAIN OF A[…] APPLICATIONS THEREOF” (Infinitec Activos S.L., priority 2016, dated 2018)

Test system: Prostaglandin E2 (PGE2)
Assay: Anti-inflammatory activity: PGE2 quantification by ELISA in cells stimulated by IL-1α
Assay type: cell-based
Details: Cycloheximide 100 µg/ml; IL-1α (5 pM)
Procedure: When cells are stimulated by an inflammatory agent PGE2 is synthesized de novo and released into the extracellular space. Thus quantification of PGE2 is used to asses the anti-inflammatory activity products.
In the present example the anti-inflammatory activity of the extract of example 2 was determined by quantification of PGE2 in cells stimulated by IL-1α using a kit for an enzyme-linked immunosorbent assay (ELISA). The kit used was Prostaglandin E2 EIA kit Item n° 514010 from Cayman Chemical.
Prostaglandin E2 assay is based on competition between the PGE2 to be determined and a fixed amount of added PGE2-acetylcholinesterase (AChE) conjugate (PGE2 tracer) for a limited amount of PGE2 monoclonal antibody. The amount of PGE2 tracer able to bind the PGE2 monoclonal antibody will be inversely proportional to the concentration of PGE2 in the well. Both the antibody-PGE2 complex and then antibody-PGE2 tracer complex bind to polyclonal goat anti-mouse IgG previously bound to the well. Then the plate is washed to remove any unbound reagent and Ellman's reagent is added to determine the amount of AChE bound to the well. […] The intensity of this color, determined by UV-Vis spectrophotometry, is proportional to the amount of PGE2 tracer bound […], which is inversely proportional to the amount of PGE2 present in the free well during incubation.

## C[C@@H]1C[C@@H]([C@H](O)CC2CC(=O)NC(=O)C2)C(=O)[C@@H](C)C1 [Cycloheximide]
  PGE2: 31.85 pg/mL
  inhibition at 100 µg/mL: 97.6%
